Results from ChEMBL document CHEMBL3507680, “University of Dundee, Gates Library screen for HepG2 cell viability”.

Test: Human HepG2 cell viability assay in 384 well format
Assay type: toxicity, cell-based
Parameters: dose 125 nL, time 70.5 hour; cytotoxicity at 70.5 h: concentration not given beside the values
Details: HepG2 cells, read-out: Inhibition

| Compound | cytotoxicity at 70.5 h [%] |
| --- | --- |
| COCc1ccc(C(=O)N2CCCN(C(=O)OCC(C)C)CC2)cc1 | 19 |
| Cc1noc(C2CCCN(C(=O)c3ccc(Cl)cc3F)C2)n1 (stereo not drawn) | -7.02 |
| Cc1nc(C)n(C2CCCN(C(=O)CCn3cncn3)C2)n1 (stereo not drawn) | -0.0645 |
| Cc1ccc(-c2nc(C3CCN(C(=O)c4ccnn4C)CC3)no2)cn1 | -7.4 |
| CCC1CCCN(CC(=O)Nc2oc(C)c3c(C)n[nH]c(=O)c23)C1 (stereo not drawn) | -9.67 |
| CCOCc1nc2c(c(N(C)Cc3ccsc3)n1)CCNCC2 | -3.56 |
| CNC(=O)c1cccc(NCC(=O)Nc2cc(C)nn2C)c1C | -14 |
| COc1ccc(-c2nnc(SC(C)C(N)=O)[nH]2)c(OC)c1 (stereo not drawn) | -8.05 |
| c1ccc(-c2noc(CN3CCc4c(ncn4C4CC4)C3)n2)nc1 | -6.92 |
| Cc1nn(C)c2ncnc(N3CCCC(C)(O)C3)c12 (stereo not drawn) | -6.93 |
| COCCn1ccc(NC(=O)Nc2ccccc2)n1 | -2.83 |
| COc1ccc(C(=O)N(C)Cc2cccc(C#N)c2)c(OC)c1OC | -5.18 |
| O=C(O)CNc1cc(-c2nccnc2N2CCCC2)c2cc[nH]c2n1 | 0.303 |
| CC(NC(=O)c1ccoc1)C(=O)N(C)Cc1ccsc1 (stereo not drawn) | -5.45 |
| CCCn1nc2c(cc1=O)CN(Cc1nnc(C3CC3)o1)CC2 | 10.1 |
| CN(CCn1cccn1)S(=O)(=O)c1cccc(Cl)c1C#N | -7.08 |
| c1cc2n(n1)CC(CNCc1ccc(OC3CCCC3)nc1)CN2 (stereo not drawn) | -14.1 |
| OC(CNCCn1cccn1)COc1ccc(Br)cc1 (stereo not drawn) | -5.72 |
| Cc1ccc(CNC(=O)NCC(=O)N2CCCC2)c(N2CCCC2)c1 | 4.74 |
| CC(=O)N[C@@H]1CN(Cc2ccccc2C#N)C[C@H]1c1ccc(C)cc1 | -21.6 |
| COCC(=O)NCc1cccc(Br)c1 | 19.4 |
| Cc1nc(N2CCCC2)nc2c1CN(C(=O)N(C)C)CC2 | -1.53 |
| Cc1noc(C)c1CCC(=O)NCCc1cccs1 | -7.09 |

| Compound | cytotoxicity at 70.5 h [%] |
| --- | --- |
| O=C(Nc1cnccn1)[C@@H]1CC[C@@H]2[C@@H](CCN2Cc2nccs2)O1 | -4.62 |
| Cc1nc(CN2CCCN(C(=O)C(C)OCC3CC3)CC2)cs1 (stereo not drawn) | -8.36 |
| CN(C)c1nccc(CNS(=O)(=O)c2ccc(F)c(Cl)c2)n1 | -5.5 |
| Cc1nn(C)c2c(=O)n(CC(=O)NCC3CCCO3)ccc12 (stereo not drawn) | -4.99 |
| CCN(CCOC)C(=O)c1cc(COc2ccc3c(c2)CCCC3)on1 | -3.35 |
| COC1(CNC(=O)NCCc2ccccc2)CCSC1 (stereo not drawn) | 15.9 |
| Cc1c(C(=O)NCC(C)C)nnn1-c1cccc2c1CCN(C(C)C)C2 | -0.43 |
| CCCC(NC(=O)c1occc1C)c1nnn[nH]1 (stereo not drawn) | -1.34 |
| Cc1c(C(=O)NCC2CCCO2)nnn1-c1cccc2c1CCN(C)C2 (stereo not drawn) | 19.8 |
| CCc1cc(=O)[nH]c(NC2CCN(S(=O)(=O)c3ccccc3)CC2)n1 | -7.53 |
| Cc1noc(CNc2ccccc2C(=O)N2CCCC(O)C2)n1 (stereo not drawn) | 5.5 |
| O=C(Cc1ccccn1)N1CCC2(CC1)CN(c1ncccn1)CCO2 | -10.3 |
| CCC(CO)N(Cc1ccco1)C(=O)c1ccccc1NC (stereo not drawn) | 0.632 |
| Cn1ccnc1C(=O)N1CCC(Cn2cc(-c3ccsc3)nn2)CC1 | -8.29 |
| c1coc(-c2nc3c(c(NCc4n[nH]c5c4CCC5)n2)CCNCC3)c1 | 7.72 |
| Cc1noc(C)c1CN(C)C(=O)c1n[nH]c(N)c1-c1ccccc1 | -5.4 |
| Cn1ccnc1CN1CCC2(CC(=O)N(c3ccsc3)C2)C1 (stereo not drawn) | -8.8 |
| O=S1(=O)CCC(n2nc(COc3ccccc3)nc2-c2cnccn2)C1 (stereo not drawn) | -1.94 |
| O=C(NC1CCC1)[C@@H]1C[C@@H]2CCN(Cc3cccs3)C[C@@H]2O1 | 7.52 |
| Cc1cccc(-n2cc(C(=O)N3CCn4c(C)nnc4C3)nn2)c1 | 9.22 |
| COCCN1C(=O)[C@]2(CC[C@@H]3CN(S(=O)(=O)CC(C)C)C[C@@H]32)N=C1C | 13.1 |
| CN(C)C(=O)COC[C@@H]1CC[C@H]2[C@H](CCN2c2ccccn2)O1 | 44.1 |
| Cc1c(C(C)NCc2cnn(C)c2)cnn1-c1ccccc1 (stereo not drawn) | 2.44 |

| Compound | cytotoxicity at 70.5 h [%] |
| --- | --- |
| O=C(Cc1ccc2c(c1)OCCCO2)Nc1nnn[nH]1 | -6.98 |
| CCn1cc(-c2nn3c(C(C)C)nnc3s2)c(C)n1 | -14.2 |
| COc1cc(NC(=O)c2ccc(CN3CC[C@H](O)C3)cc2)cc(OC)c1 | -10.7 |
| Cc1cc(Cl)ccc1NCC(=O)Nc1cc(C(C)(C)C)no1 | -6.23 |
| COCCOCC(=O)NC1CCN(c2ccccn2)CC1 | 16.4 |
| Cc1noc(CCNC(=O)c2ccc(N(C)C)c(F)c2)n1 | -3.5 |
| CCC(=O)N1CCc2[nH]cnc2C12CCN(C(=O)c1snnc1C)CC2 | -10.6 |
| O=C(c1ccoc1)N1CCCN(CC2CCOc3ccccc3C2)CC1 (stereo not drawn) | 18.3 |
| CS(=O)(=O)N1CCCC12CCCN(C(=O)c1ccno1)C2 (stereo not drawn) | -9.08 |
| COc1cc(C(C)=O)ccc1SCC(=O)Nc1ccc(C)cn1 | -7.73 |
| Cc1cnc(C)c(N2CCN(Cc3ccc(-c4cc[nH]n4)o3)CC2)n1 | -12.4 |
| CN(C)c1ccc(NC(=O)N2CCc3sccc3C2)cn1 | 4.85 |
| COCCC1(CNC(=O)Nc2ccc(-n3nccn3)cc2)CCC1 | 13.3 |
| Cc1cc(CC(C)NC(=O)c2n[nH]c3c2CCC3)n[nH]1 (stereo not drawn) | 3.59 |
| CCNC(=O)N1CCC(=Cc2ccccc2)CC1 | 1.05 |
| O=C(OCc1ccccc1)C1CCCN1Cc1nc(C2CC2)no1 (stereo not drawn) | -17.4 |
| O=C(CN1CCC(C(=O)c2cc(F)ccc2F)CC1)NC1CC1 | -12 |
| Cc1ccc(CN2CCOC3(COCCN(C(C)C)C3)C2)o1 (stereo not drawn) | -12.3 |
| COc1ccc2cc(-c3n[nH]cc3CN3CCSCC3)ccc2c1 | 0.45 |
| COCCN(Cc1ccccc1)C(=O)c1csc(-c2nnc[nH]2)n1 | -5.25 |
| CC(O)CN1CCC(CNCc2ccc(OC(F)(F)F)cc2)CC1 (stereo not drawn) | 5.04 |
| Cc1cc(O)ncc1NS(=O)(=O)c1cccc(F)c1F | -19.8 |
| O=C(CCc1nccs1)N1CCN(c2ccc(Br)cn2)CC1 | 22.4 |

| Compound | cytotoxicity at 70.5 h [%] |
| --- | --- |
| Cn1nc(C(=O)NCc2ccccc2C(F)(F)F)c2c1CCS(=O)(=O)C2 | -5.12 |
| O=C(NCc1cccnc1N1CCc2ccccc2C1)c1cc(=O)[nH][nH]1 | -3.06 |
| Cc1noc(C)c1CNc1c(N2CCCC2)cccc1N1CCCC1 | -5.49 |
| CN(CC(N)=O)CC1(c2ccc(Br)cc2)CC1 | -5.53 |
| Cc1ccsc1C(=O)N1CCCN(Cc2cscn2)CC1 | -2.76 |
| CC1(C(=O)Nc2ccc(F)c(-n3cccc3)c2)CCOCC1 | -6.66 |
| CCCOCCn1ncc(N2CCc3ccccc3C2)cc1=O | -1.9 |
| CN(C)CCN1CCC2(CC1)CN(Cc1cccnc1)C(=O)CO2 | -4.21 |
| Cn1cc(N2C(=O)CC[C@@H]3[C@H]2CCN3CCc2ccccc2)cn1 | 16.8 |
| C[C@]1(O)CN(Cc2cscn2)CC[C@@H]1Oc1cccc(F)c1 | -3.07 |
| O=C(NCc1nn(-c2ccccc2)c2c1CCC2)NCC1COCCO1 (stereo not drawn) | -9.01 |
| Cc1occc1C(=O)N1C[C@@H]2CCCO[C@@H]2[C@H](NS(C)(=O)=O)C1 | -1.97 |
| O=C(Cc1cccc(F)c1)NCCNCc1ccco1 | 19.4 |
| CN(C(=O)CCc1cccs1)C1CCCN(C2Cc3ccccc3C2)C1 (stereo not drawn) | -1.24 |
| CCn1nc(C(C)C)cc1C(=O)N1CC(OCc2ccccc2F)C1 | 0.716 |
| Cc1cc2nccc(C3CCN(C(=O)c4ccccc4F)CC3)n2n1 | -4.04 |
| Cc1cc(N(C)C)nc(N2CCn3c(C)nnc3C2)n1 | -17.7 |
| O=C(CC[C@@H]1CCCN2CCCC[C@H]12)NCCc1cc(O)ncn1 | -11.3 |
| CN(C)c1cc(CNC(=O)Nc2ccc(F)cc2)ccn1 | 12.6 |
| COc1ccccc1OCc1cc(C(=O)N2C[C@@H](C)O[C@@H](C)C2)n[nH]1 | -11.2 |
| CC(C)(C)n1cc(CNC2CCN(C(=O)c3ccco3)CC2)cn1 | 1.29 |
| Cc1ccccc1N1CCN(C(=O)CSc2ccncc2)CC1=O | -8.48 |
| CN(C)C1CCCN(C(=O)c2ccc3sc4c(c3c2)CCNC4=O)CC1 (stereo not drawn) | 1.18 |

| Compound | cytotoxicity at 70.5 h [%] |
| --- | --- |
| COc1ccccc1-c1nnc([C@H]2CCN(C(C)=O)C2)o1 | -6.37 |
| CC(C)n1cnnc1CN(C)C(=O)c1cccnc1O | -4.11 |
| Cc1cc(-n2cncn2)ccc1C(=O)Nc1ccc(N2CCCC2)cn1 | -1.24 |
| COCc1csc(NC(=O)NCc2ccccn2)n1 | 5.11 |
| Cc1cc(N2CCOCC2)ccc1NC(C)c1nc(C(C)(C)C)no1 (stereo not drawn) | -6.63 |
| Cc1nc(N[C@H]2COC[C@@H]2N2CCCCC2)c2c(C)nn(C)c2n1 | -4.88 |
| CCc1ncc(C(=O)N2CCC(O)(CN3CCOCC3)C(C)(C)C2)cn1 (stereo not drawn) | -0.715 |
| Cc1cc(C(=O)N2C[C@@H]3CCCO[C@@H]3[C@H](N(C)C(C)C)C2)c(C)[nH]1 | -6.48 |
| O=S(=O)(NCCC(O)c1cccs1)c1ccccc1 (stereo not drawn) | -5.21 |
| Cc1ccc(N2CCCC(N(C)Cc3ccccn3)C2)nn1 (stereo not drawn) | -10.3 |
| O=C(NCCNc1ncccn1)N1CC=C(c2ccccc2)CC1 | -4.56 |
| COCCC(Cc1cccc(Br)c1)C(=O)NCC(N)=O (stereo not drawn) | -9.6 |
| CC(C)N(C)C(=O)C1CSCN1S(=O)(=O)c1cc(Cl)ccc1Cl (stereo not drawn) | 11.9 |
| Cc1ccc(S(=O)(=O)N(C)CC(N)=O)c(Cl)c1 | -10.6 |
| O=C(NCc1ccco1)c1cc[n+]([O-])cc1 | -4.13 |
| c1ccc(CN2CCC3(CC2)CCN(c2ccccn2)C3)nc1 | -10.3 |
| Cc1oc(C)c(C(=O)NCc2cccc(NC(=O)CN(C)C)c2)c1C | -8.3 |
| CN1CCC(N(C)CCC(=O)N2CCC(CCc3ccccc3)CC2)C1 (stereo not drawn) | 26.3 |
| COCCOCC(=O)NCCCOC1CCCc2ccccc21 (stereo not drawn) | 27.2 |
| CC1CN(CC(=O)NCc2ccccc2)CCN1Cc1nccn1C (stereo not drawn) | 0.503 |
| CN(C)C(=O)c1cccc(CN2CCN(CCO)CC2)c1 | 38.5 |
